The results in this text go back to ChEMBL document CHEMBL3091330, “Discovery of 3,4-Dihydropyrimidin-2(1H)-ones As a Novel Class of Potent and Selective A2B Adenosine Receptor Antagonists” (ACS Med Chem Lett, 2013).

One series addresses Cytochrome P450 3A4 (Homo sapiens, UniProt P08684). Nature of the series: Inhibition of human recombinant CYP3A4 expressed in baculosomes at 100 fold Ki. Format: ADME. The conditions noted are these: recombinant enzyme.
In a further series the target is T1, Cytochrome P450 1A2 (Homo sapiens, UniProt P05177).
T1 sequence (P05177 whole entry): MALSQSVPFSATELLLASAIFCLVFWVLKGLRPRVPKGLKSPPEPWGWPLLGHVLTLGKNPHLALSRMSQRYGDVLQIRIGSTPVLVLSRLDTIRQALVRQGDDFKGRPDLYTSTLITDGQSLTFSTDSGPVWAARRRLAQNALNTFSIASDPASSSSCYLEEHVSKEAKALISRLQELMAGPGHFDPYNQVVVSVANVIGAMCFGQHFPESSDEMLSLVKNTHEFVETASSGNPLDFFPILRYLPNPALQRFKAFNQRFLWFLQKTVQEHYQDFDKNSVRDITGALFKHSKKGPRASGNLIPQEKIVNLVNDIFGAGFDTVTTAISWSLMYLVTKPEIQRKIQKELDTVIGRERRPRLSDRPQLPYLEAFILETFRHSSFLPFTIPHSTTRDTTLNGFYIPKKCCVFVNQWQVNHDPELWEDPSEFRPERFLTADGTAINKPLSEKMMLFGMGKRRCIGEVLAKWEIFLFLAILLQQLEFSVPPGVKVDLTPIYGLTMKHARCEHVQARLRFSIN
Description: Inhibition of human recombinant CYP1A2 expressed in baculosomes at 100 fold Ki. Format: ADME. The conditions noted are these: recombinant enzyme.

Series [1] concerns the target T2, Adenosine receptor A2b (Homo sapiens) (UniProt P29275).
T2 sequence (whole entry): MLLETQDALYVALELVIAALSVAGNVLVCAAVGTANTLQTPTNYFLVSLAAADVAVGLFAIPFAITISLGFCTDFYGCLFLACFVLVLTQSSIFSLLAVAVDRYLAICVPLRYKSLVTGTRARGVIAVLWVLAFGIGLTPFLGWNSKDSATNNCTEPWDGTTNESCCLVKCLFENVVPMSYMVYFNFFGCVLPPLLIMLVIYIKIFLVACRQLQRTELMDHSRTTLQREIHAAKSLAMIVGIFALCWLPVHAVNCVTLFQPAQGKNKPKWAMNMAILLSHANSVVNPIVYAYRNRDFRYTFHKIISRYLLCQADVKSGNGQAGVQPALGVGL
Description: Antagonist activity at human adenosine A2B receptor expressed in HEK293 cells assessed as inhibition of NECA-stimulated cAMP accumulation incubated for 15 mins prior to NECA-challenge measured after 15 mins by spectrophotometry. In kind it is functional, cell-based.

Another series has as its target T3, Adenosine receptor A1 (Homo sapiens, UniProt P30542).
T3 sequence (P30542 whole entry): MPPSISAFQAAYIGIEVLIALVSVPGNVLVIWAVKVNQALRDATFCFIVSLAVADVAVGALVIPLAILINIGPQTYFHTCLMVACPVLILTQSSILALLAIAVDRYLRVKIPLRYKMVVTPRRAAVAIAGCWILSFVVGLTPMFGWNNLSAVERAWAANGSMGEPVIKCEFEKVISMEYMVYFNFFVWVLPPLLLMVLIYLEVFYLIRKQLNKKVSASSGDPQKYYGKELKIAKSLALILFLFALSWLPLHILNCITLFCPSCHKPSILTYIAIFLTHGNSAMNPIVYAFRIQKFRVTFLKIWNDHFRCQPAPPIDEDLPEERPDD
Nature of the series: Displacement of [3H]DPCPX from human adenosine A1 receptor expressed in CHO cells after 60 mins. Format: cell-based.

Series [2] deals with T4, Adenosine receptor A3 (Homo sapiens) (UniProt P0DMS8).
T4 sequence (whole entry): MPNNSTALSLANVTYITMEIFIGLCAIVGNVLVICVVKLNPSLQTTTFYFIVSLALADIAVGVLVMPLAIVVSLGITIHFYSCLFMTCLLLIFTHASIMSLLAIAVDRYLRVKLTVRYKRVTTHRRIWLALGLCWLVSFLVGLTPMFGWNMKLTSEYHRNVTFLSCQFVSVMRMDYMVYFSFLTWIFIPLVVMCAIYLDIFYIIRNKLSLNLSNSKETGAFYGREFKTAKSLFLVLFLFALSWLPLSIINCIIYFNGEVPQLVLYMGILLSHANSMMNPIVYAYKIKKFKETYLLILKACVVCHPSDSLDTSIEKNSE
Description: Displacement of [3H]NECA from adenosine A3 receptor in human HeLa cells at 10 uM after 180 mins. In kind it is cell-based.

A further series deals with T5, Adenosine receptor A3 (Homo sapiens, UniProt P0DMS8).
T5 sequence (P0DMS8 whole entry): T4 sequence (whole entry)
Description: Displacement of [3H]NECA from adenosine A3 receptor in human HeLa cells after 180 mins. In kind it is cell-based.

The target in another series is T6, Adenosine receptor A2b (Homo sapiens, UniProt P29275).
T6 sequence (P29275 whole entry): T2 sequence (whole entry)
Description: Displacement of [3H]DPCPX from human adenosine A2B receptor expressed in HEK293 cells after 30 mins by Scatchard plot analysis. In kind it is cell-based.

In series [3] the target is T7, Adenosine receptor A2a (Homo sapiens, UniProt P29274). Nature of the series: Displacement of [3H]ZM241385 from adenosine A2A receptor in human HeLa cells at 10 uM after 30 mins. In kind it is cell-based.
In series [4] the target is T7, Adenosine receptor A2a. Description: Displacement of [3H]ZM241385 from adenosine A2A receptor in human HeLa cells after 30 mins. In kind it is cell-based.
The target in series [5] is T8, Adenosine receptor A1 (Homo sapiens) (UniProt P30542).
T8 sequence (whole entry): T3 sequence (P30542 whole entry)
Description: Displacement of [3H]DPCPX from human adenosine A1 receptor expressed in CHO cells at 10 uM after 60 mins. In kind it is cell-based.

T7 sequence (P29274 whole entry): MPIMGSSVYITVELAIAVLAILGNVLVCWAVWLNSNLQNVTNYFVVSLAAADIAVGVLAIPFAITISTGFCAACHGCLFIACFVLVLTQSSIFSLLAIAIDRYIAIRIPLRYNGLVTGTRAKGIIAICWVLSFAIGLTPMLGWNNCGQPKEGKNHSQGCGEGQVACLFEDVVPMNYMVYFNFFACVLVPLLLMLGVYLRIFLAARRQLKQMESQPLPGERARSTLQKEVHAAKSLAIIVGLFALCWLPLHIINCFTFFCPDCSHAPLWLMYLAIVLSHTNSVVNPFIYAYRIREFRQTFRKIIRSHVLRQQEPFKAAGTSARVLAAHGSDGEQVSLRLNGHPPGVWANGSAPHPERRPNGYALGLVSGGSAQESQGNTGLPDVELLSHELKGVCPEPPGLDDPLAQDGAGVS
Sequence of Cytochrome P450 3A4 (P08684 whole entry): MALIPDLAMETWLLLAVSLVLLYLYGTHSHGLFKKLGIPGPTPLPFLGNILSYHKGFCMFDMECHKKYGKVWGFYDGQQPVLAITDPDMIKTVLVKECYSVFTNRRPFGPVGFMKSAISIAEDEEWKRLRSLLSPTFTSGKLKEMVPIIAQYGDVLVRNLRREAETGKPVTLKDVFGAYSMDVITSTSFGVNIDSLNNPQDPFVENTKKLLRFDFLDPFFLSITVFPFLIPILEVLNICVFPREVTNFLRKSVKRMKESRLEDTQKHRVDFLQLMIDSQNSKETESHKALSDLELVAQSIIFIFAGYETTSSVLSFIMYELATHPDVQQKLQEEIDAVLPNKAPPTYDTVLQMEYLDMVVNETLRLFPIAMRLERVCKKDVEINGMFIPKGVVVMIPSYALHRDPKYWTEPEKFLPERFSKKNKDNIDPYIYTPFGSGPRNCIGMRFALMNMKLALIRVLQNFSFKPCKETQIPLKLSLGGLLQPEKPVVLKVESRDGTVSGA

As for `CCOC(=O)C1=C(C)NC(=O)NC1c1ccsc1` (racemic), the “inhibition (INH)” value on Cytochrome P450 3A4 and at Cytochrome P450 1A2 was “Not Active” in each case. Further, the antagonist equilibrium constant (Kb) in [1] stood at 25.2 nM. Further, the Ki is greater than 10000 nM on Adenosine receptor A1, greater than 10000 nM on Adenosine receptor A3, 23.6 nM on Adenosine receptor A2b and greater than 10000 nM at Adenosine receptor A2a [4]. In addition, the inhibition in series [2] amounted to 11%; at Adenosine receptor A2a [3], 34%; in series [5], 16%.

Turning to `CC1=C(C(=O)OC(C)C)C(c2ccco2)NC(=S)N1` (racemic), the “inhibition (INH)” value at Cytochrome P450 3A4 and at Cytochrome P450 1A2 was “Not Active” each time. For the same compound, the Kb in series [1] came to 4.7 nM. For the same compound, the inhibitory constant (Ki) on Adenosine receptor A1 is greater than 10000 nM; at Adenosine receptor A3 it was greater than 10000 nM; at Adenosine receptor A2b, 10.2 nM; at Adenosine receptor A2a [4], greater than 10000 nM. Moreover, the inhibition in [2] was 4%; on Adenosine receptor A2a [3], 18%; in series [5] it was 15%.
